The target in one assay is Histone deacetylase 1 (Homo sapiens, UniProt Q13547). Briefly: Inhibition of human recombinant HDAC1 pre-incubated for 30 mins before substrate addition and measured after 30 mins by fluorescence based assay.
For assay [1], the target named is Class 1 histone deacetylase (Homo sapiens, UniProt Q13547+O15379+Q92769+Q9BY41). Briefly: Inhibition Class 1 histone deacetylase in human HeLa nuclear extracts using Fluor-de- Lys-green substrate by fluorescence assay. The assay is classed as cell-free.
The next assay addresses Histone deacetylase 2 (Homo sapiens, UniProt Q92769). The experiment in a line: Inhibition of human recombinant HDAC2 pre-incubated for 30 mins before substrate addition and measured after 30 mins by fluorescence based assay.

Results on 10 compounds are retold here after ChEMBL document CHEMBL4385666, “Exploring hydroxamic acid inhibitors of HDAC1 and HDAC2 using small molecule tools and molecular or homology modelling” (Bioorg Med Chem Lett, 2019).

Each structure is given as a SMILES string. pIC50: −log10 of the molar value.

Chain of Histone deacetylase 1 (Q13547 whole entry): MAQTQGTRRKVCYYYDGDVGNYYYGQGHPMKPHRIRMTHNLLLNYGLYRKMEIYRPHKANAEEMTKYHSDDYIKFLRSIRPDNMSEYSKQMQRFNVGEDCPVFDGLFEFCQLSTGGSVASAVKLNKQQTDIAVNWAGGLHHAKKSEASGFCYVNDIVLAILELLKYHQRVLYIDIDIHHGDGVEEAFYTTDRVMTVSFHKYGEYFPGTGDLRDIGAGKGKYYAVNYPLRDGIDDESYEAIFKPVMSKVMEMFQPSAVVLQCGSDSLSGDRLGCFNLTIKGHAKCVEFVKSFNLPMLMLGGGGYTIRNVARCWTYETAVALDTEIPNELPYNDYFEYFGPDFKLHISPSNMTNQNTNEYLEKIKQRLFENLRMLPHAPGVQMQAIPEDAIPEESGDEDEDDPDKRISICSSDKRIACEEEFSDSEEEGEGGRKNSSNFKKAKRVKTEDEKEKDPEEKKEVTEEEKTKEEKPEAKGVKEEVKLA
Chain of Histone deacetylase 2 (Q92769 whole entry): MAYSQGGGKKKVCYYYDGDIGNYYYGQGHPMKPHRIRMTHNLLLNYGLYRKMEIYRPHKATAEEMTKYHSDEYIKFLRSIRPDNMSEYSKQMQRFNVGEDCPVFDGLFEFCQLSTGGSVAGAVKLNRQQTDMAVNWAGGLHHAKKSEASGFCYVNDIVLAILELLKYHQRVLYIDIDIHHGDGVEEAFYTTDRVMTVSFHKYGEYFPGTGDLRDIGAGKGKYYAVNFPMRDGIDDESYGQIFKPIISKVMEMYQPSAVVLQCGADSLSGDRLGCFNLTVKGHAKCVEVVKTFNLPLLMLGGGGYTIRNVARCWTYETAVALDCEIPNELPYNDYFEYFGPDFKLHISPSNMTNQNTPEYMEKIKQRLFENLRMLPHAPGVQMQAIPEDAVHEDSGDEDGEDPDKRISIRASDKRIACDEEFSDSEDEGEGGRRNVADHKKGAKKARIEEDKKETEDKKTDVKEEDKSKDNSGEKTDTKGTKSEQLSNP

`COc1ccccc1CNCc1ccc(/C=C/C(=O)NO)cc1`: the figures for the pIC50 on Histone deacetylase 1 and on Histone deacetylase 2 were 6.21 and 5.83, respectively. For the same compound, the IC50 in assay [1] worked out at 278 nM.

For `COc1cccc(CNCc2ccc(/C=C/C(=O)NO)cc2)c1OC`, the pIC50 was 6.22 on Histone deacetylase 1 and 6.02 on Histone deacetylase 2. In assay [1], this compound gave an IC50 of 296 nM.

`COc1ccc(CNCc2ccc(/C=C/C(=O)NO)cc2)c(OC)c1`: the pIC50 is 6.35 on Histone deacetylase 1 and 6.00 on Histone deacetylase 2. For the same compound, the IC50 in assay [1] was determined as 258 nM.

For `COc1ccc(OC)c(CNCc2ccc(/C=C/C(=O)NO)cc2)c1`, the pIC50 is 6.21 at Histone deacetylase 1 and 5.76 on Histone deacetylase 2. Besides, in assay [1], the IC50 came to 292 nM.

Turning to `O=C(/C=C/c1ccc(CNCc2ccccc2)cc1)NO`, the IC50 in assay [1] is on record as 370 nM.

Regarding `COc1cccc(OC)c1CNCc1ccc(/C=C/C(=O)NO)cc1`, the pIC50 was 6.20 at Histone deacetylase 1 and 5.97 at Histone deacetylase 2. The IC50 in assay [1] is given as 235 nM.

Turning to `COc1cc(CNCc2ccc(/C=C/C(=O)NO)cc2)cc(OC)c1`, the pIC50 at Histone deacetylase 1 was 6.08; at Histone deacetylase 2, 5.90. Also, in assay [1], the IC50 came out at 415 nM.

As to `COc1ccc(CNCc2ccc(/C=C/C(=O)NO)cc2)cc1OC`, the pIC50 at Histone deacetylase 1 is 5.90; at Histone deacetylase 2 it was 5.72. The IC50 in assay [1] came out at 371 nM.

Take `COc1ccc(CNCc2ccc(/C=C/C(=O)NO)cc2)cc1`: the pIC50 at Histone deacetylase 1 was 6.42; at Histone deacetylase 2 it was 6.03. In assay [1], this compound returned an IC50 of 195 nM.

Take `COc1cccc(CNCc2ccc(/C=C/C(=O)NO)cc2)c1`: the pIC50 on Histone deacetylase 1 is 6.33; on Histone deacetylase 2 it was 6.09. In addition, the IC50 in assay [1] was 420 nM.
